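Assay format: 96-well plates, 48-hour exposure. Here, GI50 denotes the concentration required for 50% inhibition of growth.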 Calls of active or inactive are those of the source. No stated cut-off is given here; in the data, active = GI50 up to about 1.1 µM and inactive = higher.
What was measured:
Assay in all cases: growth of human tumour cells (NCI), 48 h
[1] = test system: 786-0
[2] = test system: A498
[3] = test system: A549
[4] = test system: ACHN
[5] = test system: BT-549
[6] = test system: CAKI-1
[7] = test system: CCRF-CEM
[8] = test system: COLO 205
[9] = test system: DLD-1
[10] = test system: DMS-114
[11] = test system: DMS-273
[12] = test system: DU-145
[13] = test system: EKVX
[14] = test system: HCC 2998
[15] = test system: HCT-116
[16] = test system: HCT-15
[17] = test system: HL-60
[18] = test system: HOP-62
[19] = test system: HOP-92
[20] = test system: HT-29
[21] = test system: Hs-578T
[22] = test system: IGROV-1
[23] = test system: K562
[24] = test system: KM12
[25] = test system: LOX IMVI
[26] = test system: LXFL 529
[27] = test system: M14
[28] = test system: M19-MEL
[29] = test system: MCF7
[30] = test system: MDA-MB-231
[31] = test system: MDA-MB-435
[32] = test system: MDA-N
[33] = test system: MOLT-4
[34] = test system: Malme-3M
[35] = test system: NCI-H226
[36] = test system: NCI-H23
[37] = test system: NCI-H460
[38] = test system: NCI-H522
[39] = test system: NCI/ADR-RES
[40] = test system: OVCAR-3
[41] = test system: OVCAR-4
[42] = test system: OVCAR-5
[43] = test system: OVCAR-8
[44] = test system: PC-3
[45] = test system: RPMI-8226
[46] = test system: RXF 393
[47] = test system: SF-268
[48] = test system: SF-295
[49] = test system: SF-539
[50] = test system: SK-MEL-28
[51] = test system: SK-MEL-2
[52] = test system: SK-MEL-5
[53] = test system: SK-OV-3
[54] = test system: SN12C
[55] = test system: SNB-19
[56] = test system: SNB-75
[57] = test system: SR
[58] = test system: SW-620
[59] = test system: T47D
[60] = test system: TK-10
[61] = test system: U-251
[62] = test system: UACC-257
[63] = test system: UACC-62
[64] = test system: UO-31

CCN(CC)CCNc1ccc2nc(C)n3c4ccc(OC)cc4c(=O)c1c23
GI50 [1]: 558 nM (active) | GI50 [2]: 3700 nM (inactive) | GI50 [3]: 668 nM (active) | GI50 [4]: 367 nM (active) | GI50 [5]: 5310 nM (inactive) | GI50 [6]: 1860 nM (inactive) | GI50 [7]: 126 nM (active) | GI50 [8]: 693 nM (active) | GI50 [9]: 463 nM (active) | GI50 [10]: 2580 nM (inactive) | GI50 [11]: 695 nM (active) | GI50 [12]: 1290 nM (inactive) | GI50 [13]: 1690 nM (inactive) | GI50 [14]: 800 nM (active) | GI50 [15]: 282 nM (active) | GI50 [16]: 1220 nM | GI50 [17]: 1170 nM (inactive) | GI50 [18]: 4060 nM (inactive) | GI50 [19]: 5920 nM (inactive) | GI50 [20]: 323 nM (active) | GI50 [21]: 1040 nM (active) | GI50 [22]: 494 nM (active) | GI50 [23]: 401 nM (active) | GI50 [24]: 1800 nM (inactive) | GI50 [25]: 1150 nM (inactive) | GI50 [26]: 1410 nM (inactive) | GI50 [27]: 10500 nM (inactive) | GI50 [28]: 6590 nM (inactive) | GI50 [29]: 354 nM (active) | GI50 [30]: 423 nM (active) | GI50 [31]: 11200 nM (inactive) | GI50 [32]: 1410 nM (inactive) | GI50 [33]: 95.9 nM (active) | GI50 [34]: 5330 nM (inactive) | GI50 [35]: 316 nM (active) | GI50 [36]: 2060 nM (inactive) | GI50 [37]: 538 nM (active) | GI50 [38]: 272 nM (active) | GI50 [39]: 675 nM (active) | GI50 [40]: 3140 nM (inactive) | GI50 [41]: 1410 nM (inactive) | GI50 [42]: 4820 nM (inactive) | GI50 [43]: 575 nM (active) | GI50 [44]: 955 nM (active) | GI50 [45]: 1360 nM (inactive) | GI50 [46]: 4070 nM (inactive) | GI50 [47]: 979 nM (active) | GI50 [48]: 641 nM (active) | GI50 [49]: 1910 nM (inactive) | GI50 [50]: 10400 nM (inactive) | GI50 [51]: 12400 nM (inactive) | GI50 [52]: 5570 nM (inactive) | GI50 [53]: 5480 nM (inactive) | GI50 [54]: 546 nM (active) | GI50 [55]: 1030 nM (active) | GI50 [56]: 4680 nM (inactive) | GI50 [57]: 165 nM (active) | GI50 [58]: 711 nM (active) | GI50 [59]: 17800 nM (inactive) | GI50 [60]: 873 nM (active) | GI50 [61]: 4390 nM (inactive) | GI50 [62]: 8750 nM (inactive) | GI50 [63]: 4900 nM (inactive) | GI50 [64]: 3080 nM (inactive)
